Legend:
[1] = test system: Green Peach Aphid (Myzus persicae) (MYZUPE); assay: Bioassay on Green Peach Aphid (GPA), foliar spray on cabbage seedlings; format: in vivo; conditions: 200 ppm spray on cabbage seedlings; live aphids counted after three days; Abbott's correction
Description: Several molecules disclosed herein were tested against GPA using procedures described below.
Cabbage seedling grown in 3-in pots, with 2-3 small (3-5 cm) true leaves, were used as test substrate. The seedlings were infested with […] (wingless adult and nymph stages) one day prior to chemical application. Four pots with individual seedlings were used for each treatment. Test compounds (2 mg) were dissolved in 2 mL of acetone/methanol (1:1) solvent, forming stock solutions of 1000 ppm test compound. The stock solutions were diluted 5× with 0.025% Tween 20 in water to obtain the solution at 200 ppm test compound. A hand-held aspirator-type sprayer was used for spraying a solution to both sides of the cabbage leaves until runoff. Reference plants (solvent check) were sprayed with the diluent only containing 20% by volume acetone/methanol (1:1) solvent. Treated plants were held in a holding room for three days at approximately 25° C. and ambient relative humidity (RH) prior to grading. Evaluation was conducted by counting the number of live aphids per plant under a microscope. Percent Control was measured by using Abbott's correction formula (W. S. Abbott, “A Method of Computing the Effectiveness of an Insecticide” J. Econ. Entomol 18 (1925), pp. 265-267) as follows. Corrected % Control=100*(X−Y)/X
X=No. of live aphids on solvent check plants and
Y=No. of live aphids on treated plants
The results are indicated in the table entitled “Table 1: GPA (MYZUPE) and sweetpotato whitefly-crawler (BEMITA) Rating Table”.

[2] = test system: Sweetpotato Whitefly Crawler (Bemisia tabaci) (BEMITA); assay: Bioassay on Sweetpotato Whitefly Crawler, foliar spray on cotton plants; format: in vivo; conditions: 200 ppm spray on cotton plants; live nymphs counted after 8-9 days; Abbott's correction
Description: Cotton plants grown in 3-inch pots, with 1 small (3-5 cm) true leaf, were used at test substrate. The plants were placed in a room with whitely adults. Adults were allowed to deposit eggs for 2-3 days. After a 2-3 day egg-laying period, plants were taken from the adult whitefly room. Adults were blown off leaves using a hand-held Devilbliss sprayer (23 psi). Plants with egg infestation (100-300 eggs per plant) were placed in a holding room for 5-6 days at 82° F. and 50% RH for egg hatch and crawler stage to develop. Four cotton plants were used for each treatment. Compounds (2 mg) were dissolved in 1 mL of acetone solvent, forming stock solutions of 2000 ppm. The stock solutions were diluted 10× with 0.025% Tween 20 in water to obtain a test solution at 200 ppm. A hand-held Devilbliss sprayer was used for spraying a solution to both sides of cotton leaf until runoff. Reference plants (solvent check) were sprayed with the diluent only. Treated plants were held in a holding room for 8-9 days at approximately 82° F. and 50% RH prior to grading. Evaluation was conducted by counting the number of live nymphs per plant under a microscope.

SMILES	MYZUPE rating (% Control of Mortality) [1]	BEMITA rating (% Control of Mortality) [2]
Cl.Nc1c[nH]nc1Cl [Compound 1a, 3-Chloro-1H-pyrazol-4-amine hydrochloride]	B (More than 0-Less than 80)	B (More than 0-Less than 80)
CC(=O)Nc1c[nH]nc1Cl [Compound 1b, N-(3-Chloro-1H-pyrazol-4-yl)acetamide]	B (More than 0-Less than 80)	B (More than 0-Less than 80)
CC(=O)Nc1cn(-c2cccnc2)nc1Cl [Compound 1c, N-(3-Chloro-1-(pyridin-3-yl)-1H-pyrazol-4-yl)acetamide]	B (More than 0-Less than 80)	B (More than 0-Less than 80)
CCNc1cn(-c2cccnc2)nc1Cl [Compound 1d, 3-Chloro-N-ethyl-1-(pyridin-3-yl)-1H-pyrazol-amine]	B (More than 0-Less than 80)	B (More than 0-Less than 80)
CCN(C(=O)CCCl)c1cn(-c2cccnc2)nc1Cl [Compound 2a, 3-Chloro-N-(3-chloro-1-(pyridin-3-yl)-1H-pyrazol-4-yl)-N-ethylpropanamide]	A (80-100)	A (80-100)
CCN(C(=O)CCSCCC(F)(F)F)c1cn(-c2cccnc2)nc1Cl [Compound 6.2, N-(3-Chloro-1-(pyridin-3-yl)-1H-pyrazol-4-yl)-N-ethyl-3-((3,3,3-trifluoropropyl)thio)propanamide]	A (80-100)	A (80-100)
CCN(C(=O)CC[S+]([O-])CCC(F)(F)F)c1cn(-c2cccnc2)nc1Cl (centres unmarked) [Compound 7.2, N-(3-Chloro-1-(pyridin-3-yl)-1H-pyrazol-4-yl)-N-ethyl-3-((3,3,3-trifluoropropyl)sulfoxo)propanamide]	A (80-100)	A (80-100)

Source: patent publication US9901095B2, “Processes for the preparation of pesticidal compounds” (Dow AgroSciences LLC, priority 2013, dated 2018)
